Measurements as given in patent US5302611A, “Oxindole alkaloids having properties stimulating the immunologic system & preparation containing the same” (Keplinger; Klaus, priority 1980, dated 1994).
Where two headings read alike, the source gives them in different places.

Columns and labels:
[1] = test system: neutrophil granulocytes (PMNL); assay: Granulocytic test modified after BRANDT (phagocytosis of yeast particles); type: cell-based, human
From the text: 1. […] They represent about 60-70% of all leucocytes in the human blood. The phagocytosis effect of all these granulocytes can be measured in vitro according to a method developed by BRAND (Scand. J. Haematol. Suppl. 2, 1967) and modified by TYMPNER (Munich Med. Weekly 8, 251, 1978).
A granulocytic fraction is taken from the blood of healthy probands (PMNL--abbreviation of polymorphonuclearleucocytes)
This PMNL-fraction mainly consists of neutrophil granulocytes and few eosinophil and basophil granulocytes as well as of lymphocytes, monocytes and thrombocytes. After addition of a defined amount of yeast cells (Saccharomyces cerevisiae) and the substance to be tested incubation is carried out for 10 minutes at 37° C., the suspension is spread on an object carrier and incubated at room temperature for further 35 minutes. Then the spreads are coloured and microscopically evaluated. 100 PMNL-cells are selected per object carrier, and it is determined how many yeast particles of the individual cells have been phagocytised. The phagocytosis index indicates the average number of phagocytised yeast particles.
15 ml of heparinised venous blood of clinically healthy adults was diluted with 1.5% of dextran T 500 (Pharmacia) 2:1 and allowed to stand at room temperature for 30 minutes. The supernatant containing leucocytes was injected into a sterile plastic tube and centrifugated for 7 minutes at 500 r.p.m. The granulocytes in the deposit were washed twice with 5 ml of PPM I-buffer in each case. Then the granulocytes were suspended in about 5 ml of buffer and adjusted in the Neubauer's chamber to a concentration of 5×10^6 cells/ml.
Yeast suspended in 0.9% of NaCl was heated to 100° C., three times filtered through gaze and adjusted to 3-5×10^7 particles/ml.
The serum of 5 clinically healthy adults was mixed and frozen in portions of 5 ml. For the test dilution was carried out with 0.9% of NaCl 1:10.
The test was carried out as follows: 0.2 ml of substance dissolved in 0.9% of NaCl and 0.2 ml of 0.9% NaCl, as a control substance, were pipetted to 0.2 ml, each, of pool serum, granulocyte- and yeast suspension and first incubated for 10 minutes at 37° C. Then 0.5 ml of each preparation were applied to an object carrier and incubated in a humid chamber at room temperature for further 35 minutes. Granulocytes deposited, the supernatant was carefully washed with 0.9% of NaCl, and the object carrier was dried with a dryer.
100 granulocytes were counted out per object carrier, and it was determined how many yeast particles of the individual cells had been phagocytised. The phagocytosis index (PJ) indicates the average number of yeast particles per granulocyte. The increase (S) of the phagocytosis activity in the blank value was calculated according to: [formula]

[2] = test system: isolated polymorphonuclear leucocytes (PMNL); assay: Chemiluminescence test (CL), PMNL method (isolated granulocytes); type: cell-based, human; conditions: CL method not stated
Protocol: 2. Chemiluminescence test (CL)
The low light yield of such CL-reactions of phagocytised cells is increased in the in-vitro-experiment by the addition of substances which are oxydated by activated oxygen and thus produce light of a certain wavelength, which can be physically measured. Suitable substrates are luminole (5-amino-2,3-dihydro-1,4-phthalazindione) and lucigenine (10,10'-dimethyl-9,9'-biacri-diniumdinitrate), which increase the CL-response by 10^3 times.
All tests were carried out in 6-channel-Biolumat LB 9505 of Berthold, connected to an Apple-computer with a CL-evaluation program of Berthold.
Lucigenine was chosen for light amplification which emits photons at a narrow wavelength distribution of about 510 nm and thus almost lies in the optimum of the photo-multiplier sensitivity.
The pH-value of the measuring solution should be between 7.1 and 7.4, which is obtained by the addition of veronal-buffered salt solution. The test substances were dissolved in phosphate-buffered salt solution, (PBS-buffer). Both buffer systems contain 0.1% of glucose, because the "respiratory-burst"-reaction is connected with an increase of the glucose-metabolism.
Opsonised zymosan was used for phagocyte-activation. The measurement of the CL of isolated granulocytes was carried out with native blood of isolated polymorphonuclear leucocytes (PMNL), which had been adjusted with PBS-Puffer to 10^6 […].
The test substances were first together with the isolated granulocytes or with the whole blood incubated at room temperature for 10 minutes and then in biclumate for 10 minutes at 37° C. After addition of the opsonised zymosan, measurement in the biolumat at 37° C. started. […] A curve which was typical for each substance was obtained. The integrated surfaces are directly proportional to the intensity of the CL-response.
For determining the stimulation of the "respiratory-burst" of granulocytes,which had taken place, the same formula as for the granulocytic test was used.
20 ml of native blood were mixed with 30 mg EDTA. 15 ml of this blood were mixed with 7 ml of dextran in a syringe and allowed to stand at room temperature for 30 minutes. The leucocyte-containing supernatant was transfered into a sterile centrifugal tube and centrifugated at 1000 r.p.m. for 10 minutes. The deposit consisted of leucocytes and residual portions of erythrocytes, which can influence measurement by their colour quench. The residual erythrocytes were removed by hypotonic lyis. For this purpose, the deposit was suspended in 0.25% of NaCl-solution and agitated on the whirlmix for 20 seconds. Then 20 ml of 1.6% NaCl-solution were admixed and agitated again. After centrifugation at 2000 r.p.m. for 10 minutes, the supernatant was sucked off and the whole process was repeated twice. Subsequently, the deposit was suspended in 2 ml of PBS-buffer and diluted 1:10 with Turcks-solution. It was adjusted in the Neubauer's chamber with PBS-buffer to 10^6 -cells/ml.
630 μl of veronal-buffered salt solution
100 μl of lucigenine-solution
200 μl of substance dissolved in PBS and PBS as control
After preincubation at room temperature for 10 minutes and subsequent incubation for 10 minutes at 37° C. in 6-channel-Biolumat, 40 μl of opsonised zymosan were admixed under through stirring and measurement was started. Measuring was stopped after 60 minutes.
The CL-response of the samples was stored by a computer over the measuring period, and after measurement illustrated in the form of a curve. By integration of the surfaces, the intensity of the CL-response of the respective sample was obtained in cpm.
The increase S of the CL-response by a test substance was calculated according to [formula]

[3] = up to a concentration of 10^-4 %

## COC(=O)C1=COC(C)C2CN3CCC4(C(=O)Nc5ccccc54)C3CC12 (single isomer, unassigned; isomer a) [Isomitraphylline, normal-isomitraphylline, isomer A]
[1]
  activity in the granulocytic test: active
[1]; concentration 10^-2
  percental phagocytosis increase: 16.5%
[1]; concentration 10^-3
  percental phagocytosis increase: 27.0%
[1]; concentration 10^-4
  percental phagocytosis increase: 27.0%
[1]; concentration 10^-5
  percental phagocytosis increase: 19.4%
[1]; concentration 10^-6
  percental phagocytosis increase: 5.7%
[2]; concentration 10^-3 %
  percental increase of the CL-response: 15.4%
[2]; concentration 10^-4 %
  percental increase of the CL-response: 15.7%
[2]; concentration 10^-5 %
  percental increase of the CL-response: 36.1%
[2]; concentration 10^-6 %
  percental increase of the CL-response: 46.7%
[2]; concentration 10^-7 %
  percental increase of the CL-response: 18.6%

## COC(=O)C1=COC(C)C2CN3CCC4(C(=O)Nc5ccccc54)C3CC12 (single isomer, unassigned; isomer a) [Isopteropodine, allo-isopteropodine, isomer A]
[1]
  activity in the granulocytic test: active
[1]; concentration 10^-2
  percental phagocytosis increase: 23.4%
[1]; concentration 10^-3
  percental phagocytosis increase: 48.7%
[1]; concentration 10^-4
  percental phagocytosis increase: 55.9%
[1]; concentration 10^-5
  percental phagocytosis increase: 38.2%
[1]; concentration 10^-6
  percental phagocytosis increase: 28.2%
[1]; concentration 10^-7
  percental phagocytosis increase: 13.6%
[2]; Homo sapiens, PMNL, concentration 10^-8 %, read-out: percental increase of the CL-response
  activation at 1e-08 %: 31.2%
[2]; concentration 10^-3 %
  percental increase of the CL-response: 67.2%
[2]; concentration 10^-4 %
  percental increase of the CL-response: 66.0%
[2]; concentration 10^-5 %
  percental increase of the CL-response: 55.7%
[2]; concentration 10^-6 %
  percental increase of the CL-response: 68.1%
[2]; concentration 10^-7 %
  percental increase of the CL-response: 55.3%

## CCC1CN2CCC3(C(=O)Nc4ccccc43)C2CC1C(=COC)C(=O)OC (single isomer, unassigned; isomer a) [Isorhynchophylline, normal-isorhynchophylline, isomer A]
[1]
  activity in the granulocytic test: active
[1]; concentration 10^-2
  percental phagocytosis increase: 10.8%
[1]; concentration 10^-3
  percental phagocytosis increase: 25.2%
[1]; concentration 10^-4
  percental phagocytosis increase: 27.3%
[1]; concentration 10^-5
  percental phagocytosis increase: 16.1%
[1]; concentration 10^-6
  percental phagocytosis increase: 8.8%

## COC(=O)C1=COC(C)C2CN3CCC4(C(=O)Nc5ccccc54)C3CC12 (single isomer, unassigned; isomer b) [Mitraphylline, normal-mitraphylline, isomer B]
[1]
  activity in the granulocytic test: not active

## COC(=O)C1=COC(C)C2CN3CCC4(C(=O)Nc5ccccc54)C3CC12 (single isomer, unassigned; isomer b) [Pteropodine, allo-pteropodine, isomer B]
[1]
  activity in the granulocytic test: active
[1]; concentration 10^-2
  percental phagocytosis increase: 11.2%
[1]; concentration 10^-3
  percental phagocytosis increase: 21.7%
[1]; concentration 10^-4
  percental phagocytosis increase: 26.1%
[1]; concentration 10^-5
  percental phagocytosis increase: 23.0%
[2]; concentration 10^-3 %, listed as Pteropidine
  percental increase of the CL-response: 10.6%
[2]; concentration 10^-4 %, listed as Pteropidine
  percental increase of the CL-response: 10.0%
[2]; concentration 10^-5 %, listed as Pteropidine
  percental increase of the CL-response: 23.7%
[2]; concentration 10^-6 %, listed as Pteropidine
  percental increase of the CL-response: 15.4%

## CCC1CN2CCC3(C(=O)Nc4ccccc43)C2CC1C(=COC)C(=O)OC (single isomer, unassigned; isomer b) [Rhynchophylline, normal-rhynchophyllin, isomer B]
[1]
  activity in the granulocytic test: not active

## C=C[C@]12CN(C)[C@@H]3[C@H]4CO[C@H](C[C@H]41)[C@]1(C(=O)Nc4ccccc41)[C@@H]32 [Gelsemine, gelsemine, reference compound]
[1]; concentration 10^-2
  percental phagocytosis increase: 22.1%
[1]; concentration 10^-3
  percental phagocytosis increase: 40.4%
[1]; concentration 10^-4
  percental phagocytosis increase: 33.7%
[1]; concentration 10^-5
  percental phagocytosis increase: 8.2%

## COC(=O)C1=COC(C)C2CN3CCC4(C(=O)Nc5ccccc54)C3CC12 (centres unmarked) [Speciophylline, speciophylline]
[1]; concentration 10^-2
  percental phagocytosis increase: 10.5%
[1]; concentration 10^-3
  percental phagocytosis increase: 18.5%
[1]; concentration 10^-4
  percental phagocytosis increase: 26.0%
[1]; concentration 10^-5
  percental phagocytosis increase: 35.3%

## COc1ccc2cc3[n+](cc2c1OC)CCc1cc2c(cc1-3)OCO2 [berberine, reference compound]
[1]; [3]
  effect in the granulocytic test: inactive

## CC[C@@]1(O)C(=O)OCc2c1cc1n(c2=O)Cc2cc3ccccc3nc2-1 [camotothecine, reference compound]
[1]; up to dilutions of 10^-6 %
  effect in the granulocytic test: no effects have been found

## O=c1cccc2n1C[C@@H]1CNC[C@H]2C1 [cytisine, reference compound]
[1]
  effect in the granulocytic test: did not show any effect

## C1CCN2C[C@@H]3C[C@@H](CN4CCCC[C@@H]34)[C@H]2C1 [sparteine, reference compound]
[1]; [3]
  effect in the granulocytic test: did not show any effect

## COc1cc2c(cc1OC)[C@H](Cc1ccc(Oc3c4c(cc(OC)c3OC)-c3c(OC)c(OC)c(OC)c5c3[C@H](C4)N(C)CC5)cc1)N(C)CC2 [thalifaberine, reference compound]
[1]; [3]
  effect in the granulocytic test: negative

## huangshanine [reference compound]
[1]; [3]
  effect in the granulocytic test: negative

## thalifabine [reference compound]
[1]; [3]
  effect in the granulocytic test: negative
